# From ChEMBL document CHEMBL1201862, “PubChem BioAssay data set” (2004)
#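 Growth conditions: 96-well plates. Treatment: test compound, 48 hours, 5 concentrations. Analysis: linear interpolation between bracketing concentrations; unreached endpoints set to highest concentration. GI50 marks 50% less growth.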 Active and inactive are the calls of the source. Rule as the data show it: active = GI50 up to about 1.1 µM and inactive = higher.
# Key:
# Test in all cases: NCI tumour cell line growth inhibition, 48 h
# A549 = system: A549
# HOP-62 = system: HOP-62
# HOP-92 = system: HOP-92
# HT-29 = system: HT-29
# Hs-578T = system: Hs-578T
# KM12 = system: KM12
# LOX IMVI = system: LOX IMVI
# MDA-MB-435 = system: MDA-MB-435
# MOLT-4 = system: MOLT-4
# NCI-H226 = system: NCI-H226
# NCI-H460 = system: NCI-H460
# NCI/ADR-RES = system: NCI/ADR-RES
# OVCAR-4 = system: OVCAR-4
# OVCAR-5 = system: OVCAR-5
# SK-MEL-2 = system: SK-MEL-2
# UACC-62 = system: UACC-62
# CAKI-1 = system: CAKI-1
# SNB-75 = system: SNB-75
Structure (SMILES),GI50 (A549),GI50 (HOP-62),GI50 (HOP-92),GI50 (HT-29),GI50 (Hs-578T),GI50 (KM12),GI50 (LOX IMVI),GI50 (MDA-MB-435),GI50 (MOLT-4),GI50 (NCI-H226),GI50 (NCI-H460),GI50 (NCI/ADR-RES),GI50 (OVCAR-4),GI50 (OVCAR-5),GI50 (SK-MEL-2),GI50 (UACC-62),GI50 (CAKI-1),GI50 (SNB-75)
O=C(COc1ccc(OCC(=O)NNC2=NC(c3cc(F)c(Cl)cc3Cl)CS2)c(Cl)c1)NNC1=NC(c2cc(F)c(Cl)cc2Cl)CS1 (centres undefined),14.3 µM (inactive),> 100 µM (inactive),21.6 µM (inactive),25.6 µM (inactive),20.6 µM (inactive),44.4 µM (inactive),1.04 µM (active),16.7 µM (inactive),26.2 µM (inactive),19.1 µM (inactive),29.9 µM (inactive),44.8 µM (inactive),14.7 µM (inactive),36.7 µM (inactive),36.2 µM (inactive),18.6 µM (inactive),,
CN1C(=O)C2(C)SC1(c1ccccc1)C1C(=O)N(c3ccccc3)C(=O)C12 (centres undefined),49.8 µM (inactive),> 100 µM (inactive),36.6 µM (inactive),76.2 µM (inactive),> 100 µM (inactive),66.1 µM (inactive),> 100 µM (inactive),76 µM (inactive),40.9 µM (inactive),60.4 µM (inactive),,38.6 µM (inactive),41.3 µM (inactive),> 100 µM (inactive),75 µM (inactive),65.3 µM (inactive),> 100 µM (inactive),
Cc1ccc(NC(=O)c2cc3ccccc3c(/N=N/c3cc(S(=O)(=O)O)ccc3O)c2O)c(C)c1,22.3 µM (inactive),13.1 µM (inactive),21.2 µM (inactive),12.4 µM (inactive),31.6 µM (inactive),16.1 µM (inactive),32.4 µM (inactive),19.7 µM (inactive),17.1 µM (inactive),15.4 µM (inactive),,25.6 µM (inactive),12.7 µM (inactive),16.2 µM (inactive),16 µM (inactive),15.5 µM (inactive),32.5 µM (inactive),23.3 µM (inactive)
CC(C)(C)OC(=O)N1CCC(NC(=O)NC2CCN(C(=O)OC(C)(C)C)CC2)CC1,> 100 µM (inactive),> 100 µM (inactive),> 100 µM (inactive),> 100 µM (inactive),> 100 µM (inactive),> 100 µM (inactive),> 100 µM (inactive),> 100 µM (inactive),,,> 100 µM (inactive),> 100 µM (inactive),> 100 µM (inactive),> 100 µM (inactive),> 100 µM (inactive),> 100 µM (inactive),> 100 µM (inactive),> 100 µM (inactive)
CN1C2CCC1CC(CCNC(c1ccccc1)c1ccccc1)C2 (centres undefined),71 µM (inactive),19.7 µM (inactive),18 µM (inactive),15.2 µM (inactive),29.9 µM (inactive),44 µM (inactive),20.2 µM (inactive),6.81 µM (inactive),25.4 µM (inactive),36.9 µM (inactive),83.9 µM (inactive),> 100 µM (inactive),> 100 µM (inactive),> 100 µM (inactive),16.7 µM (inactive),,59.7 µM (inactive),47.2 µM (inactive)
COc1cc2cc(C(=O)N3C[C@@H](CCl)c4c3cc(N)c3ccccc43)[nH]c2c(OC)c1OC,0.00546 µM (active),0.00755 µM (active),0.0048 µM (active),0.0735 µM (active),0.00738 µM (active),0.00216 µM (active),0.00313 µM (active),0.000269 µM (active),0.00557 µM (active),,0.00183 µM (active),0.00332 µM (active),0.826 µM (active),< 0.01 µM (active),< 0.01 µM (active),0.000895 µM (active),0.004 µM (active),< 0.01 µM (active)
